Measured values reported in patent publication US20250237642A1 (priority 2022, published 2025).

Experiments:
[1] = molecular target: T1, HIV-RT Q151M mutation (Human immunodeficiency virus type 1 group M subtype B, UniProt P03366, Q750M); conditions: cited from earlier work
[2] = molecular target: T1, HIV-RT Q151M mutation; conditions: cited from earlier work; remark: listed apart in the source
[3] = system: HIV-RT M184V and M184I; conditions: cited from earlier work
[4] = molecular target: HBV core protein mutants (Hepatitis B virus genotype D subtype ayw, UniProt P03146, T33Q); conditions: cited from earlier work
[5] = molecular target: HBV core protein mutants (Hepatitis B virus genotype D subtype ayw, UniProt P03146, F110I); conditions: cited from earlier work
[6] = molecular target: HBV core protein mutants (Hepatitis B virus genotype D subtype ayw, UniProt P03146, L30F); conditions: cited from earlier work
[7] = molecular target: HBV core protein mutants (Hepatitis B virus genotype D subtype ayw, UniProt P03146, F23Y); conditions: cited from earlier work
[8] = molecular target: HBV wild-type (Hepatitis B virus genotype D subtype ayw, UniProt P03146)
[9] = molecular target: T109 mutant (Hepatitis B virus genotype D subtype ayw, UniProt P03146, T109I)
[10] = molecular target: HBV core protein mutants (Hepatitis B virus genotype D subtype ayw, UniProt P03146, T109I); conditions: cited from earlier work
[11] = molecular target: HBV core protein mutants (Hepatitis B virus genotype D subtype ayw, UniProt P03146, L140I); conditions: cited from earlier work
[12] = molecular target: HBV core protein mutants (Hepatitis B virus genotype D subtype ayw, UniProt P03146, T128I); conditions: cited from earlier work

Structure (SMILES): Nc1nc(=O)n([C@@H]2CS[C@H](CO)O2)cc1F [(-)-FTC, emtricitabine]
- Enzymatic sensitivity [1]: remains sensitive
- fold reduction of EC50 [2]: 2 fold
- fold resistance [3]: 500-1000 fold

Structure (SMILES): COC(=O)C1=C(C)NC(c2ncc(F)cc2F)=N[C@H]1c1ccc(F)cc1Cl [BAY41-4109]
- Reported resistance mutation [4]: resistance mutation
- Reported resistance mutation [5]: reported
- Reported resistance mutation [6]: resistance mutations
- Reported resistance mutation [7]: resistance mutations

Structure (SMILES): C#CCNC(=O)C(=O)c1c(C)c(C(=O)Nc2ccc(F)c(F)c2)n(C)c1C [GLP-26]
- Effect on HBeAg production (sensitive / resistant) [8]: Sensitive
- Reduction of cccDNA [9]: susceptible

Structure (SMILES): CCOC(=O)C1=C(CN2CCOCC2)NC(c2nccs2)=NC1c1ccc(F)cc1Br (stereo not drawn) [GLS4]
- Reported resistance mutation [10]: resistant

Structure (SMILES): C[C@H](NS(=O)(=O)c1cc(C(=O)Nc2ccc(F)c(C#N)c2)n(C)c1)C(F)(F)F [JNJ-6379]
- Reported resistance mutation [11]: reported
- Reported resistance mutation [5]: reported
- Reported resistance mutation [6]: resistance mutations
- Reported resistance mutation [7]: resistance mutations
- Reported resistance mutation [12]: reported
